Assay results reported in US20220062240A1, “METHODS OF TREATING CANCER USING A CLK INHIBITOR” (BioSplice Therapeutics, Inc., priority 2018, published 2022).
Where two headings read alike, the source gives them in different places. Blank lines part the entries; values can stand above or below the compound they belong to.

Assays:
Type in all cases: cell-based
BT-549 = assay: CellTiter-Glo Viability Assay, breast cancer; settings: Homo sapiens, 96 h; BT-549, breast cancer, four days; read-out: EC50
CAMA1 = assay: CellTiter-Glo Viability Assay, breast cancer; settings: Homo sapiens, CAMA-1, 96 h; CAMA1, breast cancer, four days; read-out: EC50
DU4475 = assay: CellTiter-Glo Viability Assay, breast cancer; settings: Homo sapiens, DU-4475, 96 h; DU4475, breast cancer, four days; read-out: EC50
HCC1599 = assay: CellTiter-Glo Viability Assay, breast cancer; settings: Homo sapiens, 96 h; HCC1599, breast cancer, four days; read-out: EC50
MCF7 = assay: CellTiter-Glo Viability Assay, breast cancer; settings: Homo sapiens, 96 h; MCF7, breast cancer, four days; read-out: EC50
MDA-MB-231-Luc = assay: CellTiter-Glo Viability Assay, breast cancer; settings: Homo sapiens, 96 h; MDA-MB-231-Luc, breast cancer, four days; read-out: EC50
T47D = assay: CellTiter-Glo Viability Assay, breast cancer; settings: Homo sapiens, 96 h, breast cancer, four days, read-out: EC50
ZR-75-1 = assay: CellTiter-Glo Viability Assay, breast cancer; settings: Homo sapiens, 96 h; ZR-75-1, breast cancer, four days; read-out: EC50
all 50 cell lines = assay: CellTiter-Glo Viability Assay, average across all cell lines; settings: Homo sapiens; across all 50 cell lines; read-out: average EC50 for inhibition of cancer cell proliferation
Outline: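 Human cancer cell lines from breast, colorectal, haematopoietic/lymphoid, liver, lung, ovarian, pancreatic and prostate tumours were seeded at 300-3,000 cells/well and exposed to compound in duplicate for four days at 37° C, 5% CO2. Viable cells were measured by ATP luminescence; EC50 values came from dose-response curves.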

[1] = tested on: colorectal cancer (6 cell lines); assay: CellTiter-Glo Viability Assay, colorectal cancer; settings: Homo sapiens, inhibition of cancer cell proliferation
[2] = tested on: haematopoietic & lymphoid tumors (13 cell lines); assay: CellTiter-Glo Viability Assay, haematopoietic & lymphoid tumors; settings: Homo sapiens, inhibition of cancer cell proliferation
[3] = tested on: liver cancer (3 cell lines); assay: CellTiter-Glo Viability Assay, liver cancer; settings: Homo sapiens, inhibition of cancer cell proliferation
[4] = tested on: lung cancer (4 cell lines); assay: CellTiter-Glo Viability Assay, lung cancer; settings: Homo sapiens, inhibition of cancer cell proliferation
[5] = tested on: ovarian cancer (4 cell lines); assay: CellTiter-Glo Viability Assay, ovarian cancer; settings: Homo sapiens, inhibition of cancer cell proliferation
[6] = tested on: pancreatic cancer (8 cell lines); assay: CellTiter-Glo Viability Assay, pancreatic cancer; settings: Homo sapiens, inhibition of cancer cell proliferation
[7] = tested on: prostate cancer (5 cell lines); assay: CellTiter-Glo Viability Assay, prostate cancer; settings: Homo sapiens
[8] = SW480 cell line, read-out: Colorectal cancer, EC50 (μM) SW480
[9] = DND41, DND-41 cell line, read-out: Haematopoietic & Lymphoid tumors, EC50 (μM) DND-41
[10] = MV4-11, MV-4-11 cell line, read-out: Haematopoietic & Lymphoid tumors, EC50 (μM) MV-4-11
[11] = Rec1, REC-1 cell line, read-out: Haematopoietic & Lymphoid tumors, EC50 (μM) REC-1
[12] = SU-DHL-4, SUDHL4 cell line, read-out: Haematopoietic & Lymphoid tumors, EC50 (μM) SUDHL4
[13] = HL-60 cell line, read-out: Haematopoietic & Lymphoid tumors, EC50 (μM) HL-60
[14] = JM1 cell line, read-out: Haematopoietic & Lymphoid tumors, EC50 (μM) JM1
[15] = JURKAT, Clone E6-1 cell line, read-out: Haematopoietic & Lymphoid tumors, EC50 (μM) JURKAT, Clone E6-1
[16] = JeKo-1 cell line, read-out: Haematopoietic & Lymphoid tumors, EC50 (μM) JeKo-1
[17] = KASUMI-1 cell line, read-out: Haematopoietic & Lymphoid tumors, EC50 (μM) KASUMI-1
[18] = Loucy cell line, read-out: Haematopoietic & Lymphoid tumors, EC50 (μM) Loucy
[19] = MOLT-4 cell line, read-out: Haematopoietic & Lymphoid tumors, EC50 (μM) MOLT-4
[20] = TF-1 cell line, read-out: Haematopoietic & Lymphoid tumors, EC50 (μM) TF-1
[21] = TOLEDO cell line, read-out: Haematopoietic & Lymphoid tumors, EC50 (μM) TOLEDO
[22] = SNU-398, SNU398 cell line, read-out: Liver cancer, EC50 SNU398
[23] = HEPG2 cell line, read-out: Liver cancer, EC50 HEPG2
[24] = PLC/PRF/5 cell line, read-out: Liver cancer, EC50 PLC/PRF/5
[25] = A-427, A427 cell line, read-out: Lung cancer, EC50 (μM) A427
[26] = HCC78, HCC-78 cell line, read-out: Lung cancer, EC50 (μM) HCC-78
[27] = NCI-H460 cell line, read-out: Lung cancer, EC50 (μM) NCI-H460
[28] = NCI-H522 cell line, read-out: Lung cancer, EC50 (μM) NCI-H522
[29] = PA-1, PA1 cell line, read-out: Ovarian cancer, EC50 (μM) PA1
[30] = TOV112D, TOV-112D cell line, read-out: Ovarian cancer, EC50 (μM) TOV-112D
[31] = OV-90 cell line, read-out: Ovarian cancer, EC50 (μM) OV-90
[32] = OVCAR-3 cell line, read-out: Ovarian cancer, EC50 (μM) OVCAR-3
[33] = BXPC-3, BxPC3 cell line, read-out: Pancreatic cancer, EC50 BxPC3
[34] = CAPAN-1, Capan1 cell line, read-out: Pancreatic cancer, EC50 Capan1
[35] = Capan-2, Capan2 cell line, read-out: Pancreatic cancer, EC50 Capan2
[36] = MIA PaCa-2 cell line, read-out: Pancreatic cancer, EC50 MIA PaCa-2
[37] = PANC 05.04 cell line, read-out: Pancreatic cancer, EC50 PANC 05.04
[38] = PANC-1 cell line, read-out: Pancreatic cancer, EC50 PANC-1
[39] = UPAFII cell line, read-out: Pancreatic cancer, EC50 UPAFII
[40] = DU-145, read-out: Prostate cancer EC50 Du-145
[41] = PC-3, PC3 cell line, inhibition of cancer cell proliferation, read-out: Prostate cancer EC50 PC3
[42] = 22Rv1 cell line, inhibition of cancer cell proliferation, read-out: Prostate cancer EC50 22Rv1
[43] = LNCap clone FGC cell line, inhibition of cancer cell proliferation, read-out: Prostate cancer EC50 LNCap clone FGC
[44] = VCaP (Sigma) cell line, inhibition of cancer cell proliferation, read-out: Prostate cancer EC50 VCaP (Sigma)

EC50 (BT-549): 0.414 µM
EC50 (CAMA1): 0.457 µM
EC50 (DU4475): 0.114 µM
EC50 (HCC1599): 0.209 µM
EC50 (MCF7): 0.989 µM
EC50 (MDA-MB-231-Luc): 0.106 µM
EC50 (T47D): 0.886 µM
EC50 (ZR-75-1): 0.617 µM
EC50 [1, 8]: 0.456 µM
EC50 [2, 9]: 0.635 µM
EC50 [2, 10]: 0.008 µM
EC50 [2, 11]: 0.085 µM
EC50 [2, 12]: 0.309 µM
EC50 [2, 13]: 1.01 µM
EC50 [2, 14]: 0.319 µM
EC50 [2, 15]: 0.78 µM
EC50 [2, 16]: 0.243 µM
EC50 [2, 17]: 0.184 µM
EC50 [2, 18]: 0.576 µM
EC50 [2, 19]: 0.715 µM
EC50 [2, 20]: 0.392 µM
EC50 [2, 21]: 0.141 µM
EC50 [3, 22]: 0.132 µM
EC50 [3, 23]: 0.667 µM
EC50 [3, 24]: 1.26 µM
EC50 [4, 25]: 0.26 µM
EC50 [4, 26]: 1.19 µM
EC50 [4, 27]: 0.81 µM
EC50 [4, 28]: 0.379 µM
EC50 [5, 29]: 0.146 µM
EC50 [5, 30]: 0.437 µM
EC50 [5, 31]: 0.918 µM
EC50 [5, 32]: 0.645 µM
EC50 [6, 33]: 0.678 µM
EC50 [6, 34]: 0.353 µM
EC50 [6, 35]: 0.76 µM
EC50 [6, 36]: 0.539 µM
EC50 [6, 37]: 1.28 µM
EC50 [6, 38]: 1.49 µM
EC50 [6, 39]: 0.594 µM
EC50 [7, 40]: 0.665 µM
EC50 [7, 41]: 0.557 µM
EC50 [7, 42]: 0.803 µM
EC50 [7, 43]: 0.508 µM
EC50 [7, 44]: 2.94 µM
SMILES: Cc1n[nH]c2ccc(-c3cncc(N[C@H]4CC[C@H](O)CC4)n3)cc12 [Compound 65]
EC50 (all 50 cell lines): 0.615 µM

EC50 (BT-549): 0.277 µM
EC50 (CAMA1): 0.244 µM
EC50 (DU4475): 0.148 µM
EC50 (HCC1599): 0.154 µM
EC50 (MCF7): 0.942 µM
EC50 (MDA-MB-231-Luc): 0.462 µM
EC50 (T47D): 0.451 µM
EC50 (ZR-75-1): 0.44 µM
EC50 ([1]; HCT-116, HCT116 cell line, read-out: Colorectal cancer, EC50 (μM) HCT116): 0.168 µM
EC50 ([1]; HT-29, HT29 cell line, read-out: Colorectal cancer, EC50 (μM) HT29): 0.252 µM
EC50 ([1]; SW-620, SW620 cell line, read-out: Colorectal cancer, EC50 (μM) SW620): 0.143 µM
EC50 ([1]; DLD-1 cell line, read-out: Colorectal cancer, EC50 (μM) DLD-1): 0.193 µM
EC50 ([1]; SW48 cell line, read-out: Colorectal cancer, EC50 (μM) SW48): 0.122 µM
EC50 [1, 8]: 0.339 µM
EC50 [2, 9]: 0.288 µM
EC50 [2, 10]: 0.081 µM
EC50 [2, 11]: 0.103 µM
EC50 [2, 12]: 0.292 µM
EC50 [2, 13]: 0.221 µM
EC50 [2, 14]: 0.137 µM
EC50 [2, 15]: 0.169 µM
EC50 [2, 16]: 0.125 µM
EC50 [2, 17]: 0.163 µM
EC50 [2, 18]: 0.206 µM
EC50 [2, 19]: 0.233 µM
EC50 [2, 20]: 0.316 µM
EC50 [2, 21]: 0.117 µM
EC50 [3, 22]: 0.123 µM
EC50 [3, 23]: 0.485 µM
EC50 [3, 24]: 0.613 µM
EC50 [4, 25]: 0.236 µM
EC50 [4, 26]: 0.308 µM
EC50 [4, 27]: 0.257 µM
EC50 [4, 28]: 0.19 µM
EC50 [5, 29]: 0.175 µM
EC50 [5, 30]: 0.147 µM
EC50 [5, 31]: 0.628 µM
EC50 [5, 32]: 0.073 µM
EC50 [6, 33]: 0.199 µM
EC50 [6, 34]: 0.269 µM
EC50 [6, 35]: 0.579 µM
EC50 [6, 36]: 0.159 µM
EC50 [6, 37]: 0.279 µM
EC50 [6, 38]: 0.514 µM
EC50 [6, 39]: 0.169 µM
EC50 [7, 40]: 0.36 µM
EC50 [7, 41]: 0.287 µM
EC50 [7, 42]: 0.218 µM
EC50 [7, 43]: 0.293 µM
EC50 [7, 44]: 0.77 µM
SMILES: Cc1ncc(C(=O)Nc2cc3nc(-c4cnc(C)n4C)ccc3cn2)s1 [Compound 82]
EC50 (all 50 cell lines): 0.282 µM
